Results as given in PMC11650849, “Brain endothelial permeability, transport, and flow assessed over 10 orders of magnitude using the in situ brain perfusion technique” (Fluids and Barriers of the CNS, 2024).
Where two headings read alike, the source gives them in different places.

What was measured:
[1] = rat
[2] = cited from earlier work; for Log Poct: octanol partition coefficient
[3] = cited from earlier work
[4] = Neutral fraction at pH 7.4 calculated from pKa; assay type: physicochemical
[5] = rat, in vivo
[6] = for Brain Kin: calculated at brain blood flow […] and rat serum fu; for Extraction (unbound) / Brain vascular extraction (total): calculated at brain blood flow […]; for Extraction (unbound): free drug; for Brain vascular extraction (total): with rat serum fu; for Maximal flow—90% extraction, PcS/2.3: pH 7.4
[7] = In situ rat brain perfusion (brain uptake Kin, extraction E, BBB PS); settings: for Log Pc: Pc in cm/s; for Log Po: Po in cm/s; for Log PoS: PoS in mL/s/g; for PcS: cerebral cortex, S = physiological saline, AB = artificial blood
[8] = ref Hansch et al. [123], Avdeef [46] or other sources
[9] = neutral fraction at perfusion fluid pH 7.40, calculated from pKa
[10] = facilitated nutrients, transporter not given

OCCCCO [1,4-Butanediol]
half-life [1]: 1.14 min | Log Doct pH=7.4 [2]: −0.52 | fu,.p ([3]; rat): 1.00 | fn (%) ([4]; pH 7.4): 100% | Log Pc ([5]; pH 7.4): −3.82 | Log PoS ([5]; pH 7.4): −1.82 | Pc ([5]; pH 7.4): 151 ×10⁻⁶ cm/s | PcS ([5]; pH 7.4): 0.015 mL/s/g | PoS ([5]; pH 7.4): 0.0151 mL/s/g | Log Po ([5]; pH 7.4): −3.82 | Po ([5]; pH 7.4): 0.000151 cm/s

Nc1c(O)cccc1C(=O)O [3-hydroxy-anthranilic acid]
Log Poct [2, 8]: 1.05 | Log Doct pH=7.4 [2, 8]: −1.78 | Brain Kin [6]: 0.000131 mL/s/g | Extraction (unbound) [6]: 0.54% | Brain vascular extraction (total) [6]: 0.54% | fu,.p ([3]; rat in vivo measurements): 1.00 | fn (%) [4, 9]: 0.15% | Log Pc ([5]; pH 7.4): −5.88 | Log PoS ([5]; pH 7.4): −1.05 | Pc ([5]; pH 7.4): 1.31 ×10⁻⁶ cm/s | PcS ([5]; pH 7.4): 0.00013 mL/s/g | PoS ([5]; pH 7.4): 0.0886 mL/s/g | Log Po ([5]; pH 7.4): −3.05 | Po ([5]; pH 7.4): 0.000886 cm/s

CC(N)=O [Acetamide]
fn (%) [4, 9]: 100%

Cc1nnc2n1-c1ccc(Cl)cc1C(c1ccccc1)=NC2 [Alprasolam]
fn (%) [4, 9]: 100%

Nc1ccccc1C(=O)O [Anthranilic acid]
Log Poct [2, 8]: 1.21 | Log Doct pH=7.4 [2, 8]: −1.27 | Log Pc [7]: −4.92 | Log Po [7]: −2.44 | Log PoS [7]: −0.44 | Pc ([7]; S assumed 100 cm^2/g): 11.9 ×10⁻⁶ cm/s | Po ([7]; S assumed 100 cm^2/g): 3600 ×10⁻⁶ cm/s | PoS ([7]; brain vascular intrinsic PoS): 0.36 mL/s/g | PcS ([7]; flow 0.1–[…]): 0.0012 mL/s/g | PoS ([7]; intrinsic PS of neutral solute, PoS = PcS/fn, flow 0.1–[…]): 0.36 mL/s/g | fu,.p ([3]; rat in vivo measurements): 0.50 | fn (%) [4, 9]: 0.33%

CCCCO [Butanol]
Brain Kin [6]: 0.0229 mL/s/g | Extraction (unbound) [6]: 99.8% | Brain vascular extraction (total) [6]: 97.5% | Peak flow rate for 90% E ([6]; protein-free physiologic saline pH 7.4): 3.8 mL/min/g | Maximal flow—90% extraction, PcS/2.3 ([6]; protein-free saline): 0.064 mL/s/g | fu,.p ([3]; rat): 0.60 | fn (%) [4, 9]: 100% | Pc [5]: 1470 ×10⁻⁶ cm/s | PcS [5]: 0.15 mL/s/g | PoS [5]: 0.13 mL/s/g | Po [5]: 0.00127 cm/s

CN(C)CCCN1c2ccccc2Sc2ccc(Cl)cc21 [Chlorpromazine]
half-life ([1]; brain): 61.1 min | Brain Kin [6]: 0.00885 mL/s/g | Extraction (unbound) [6]: 100% | Brain vascular extraction (total) [6]: 36.6% | Maximal flow—90% extraction, PcS/2.3 ([6]; protein-free saline): 0.13 mL/s/g | fu,.p ([3]; rat in vivo measurements): 0.0354 | fn (%) [4, 9]: 1.42% | BBB PcS ([5]; pH 7.4): 0.31 ± 0.05 mL/s/g | Extraction (Kin/F) ([5]; pH 7.4): 100% | Log Pc ([5]; pH 7.4): −2.51 | Log PoS ([5]; pH 7.4): 1.30 | Pc ([5]; pH 7.4): 3090 ×10⁻⁶ cm/s | PcS ([5]; pH 7.4): 0.31 mL/s/g | PoS ([5]; pH 7.4): 19.8 mL/s/g | Log Po ([5]; pH 7.4): −0.70 | Po ([5]; pH 7.4): 0.20 cm/s

C[C@]12CC[C@H](O)CC1=CC[C@@H]1[C@@H]2CC[C@]2(C)C(=O)CC[C@@H]12 [DHEA]
Log Poct [2, 8]: 3.00 | Log Doct pH=7.4 [2, 8]: 3.00 | fu,.p ([3]; rat in vivo measurements): 0.05 | fn (%) [4, 9]: 100%

CN(C)CCOC(c1ccccc1)c1ccccc1 [Diphenhydramine]
fn (%) [4, 9]: 1.96%

CCO [Ethanol]
Brain Kin [6]: 0.0195 mL/s/g | Extraction (unbound) [6]: 83.0% | Brain vascular extraction (total) [6]: 81.4% | fu,.p ([3]; rat): 0.95

CN1C(=O)CN=C(c2ccccc2F)c2cc([N+](=O)[O-])ccc21 [Flunitrazepam]
Log Poct [2, 8]: 2.03 | Log Doct pH=7.4 [2, 8]: 2.03 | fu,.p ([3]; rat in vivo measurements): 0.19 | fn (%) [4, 9]: 100% | Best fit PcS ([5]; pH 7.4): 0.14 mL/s/g

CCCCCCO [Hexanol]
Extraction (unbound) [6]: 99.9% | Brain vascular extraction (total) [6]: 89.1% | fu,.p ([3]; rat in vivo measurements): 0.30 | fn (%) [4, 9]: 100%

O=C(O)c1cc(=O)c2ccccc2[nH]1 [Kynurenic acid]
fu,.p ([3]; rat in vivo measurements): 1.00 | fn (%) [4, 9]: 4.6E−7% | Log Pc ([5]; pH 7.4): −5.92 | Log PoS ([5]; pH 7.4): 0.42 | PcS ([5]; pH 7.4): 0.00012 mL/s/g | PoS ([5]; pH 7.4): 2.60 mL/s/g | Log Po ([5]; pH 7.4): −1.58 | Po ([5]; pH 7.4): 0.026 cm/s

N[C@@H](CCC(=O)O)C(=O)O [L-Glutamate]
Log PS [7, 10]: −3.82 | PS [7, 10]: 0.000151 mL/s/g

CC(=O)N[C@@H](CS)C(=O)O [N-acetyl-cysteine]
Log Doct pH=7.4 [2]: −3.70 | Log Pc [7]: −7.74 | Log Po [7]: −7.74 | Log PoS [7]: −5.74 | Pc ([7]; S assumed 100 cm^2/g): 0.0182 ×10⁻⁶ cm/s | PoS ([7]; brain vascular intrinsic PoS): 1.82e-06 mL/s/g | PcS ([7]; flow 0.1–[…]): 1.82e-06 mL/s/g | Extraction (unbound) [6]: 7.60E-05% | Brain vascular extraction (total) [6]: 7.60E-05% | fu,.p ([3]; rat in vivo measurements): 1.00

COc1ccc2cc([C@H](C)C(=O)O)ccc2c1 [Naproxen]
fn (%) [4, 9]: 0.05%

NC(=O)c1cccnc1 [Nicotinamide]
Log Poct [2, 8]: −0.34 | Log Doct pH=7.4 [2, 8]: −0.34 | fn (%) [4, 9]: 100%

O=C1Nc2ccc(Cl)cc2C(c2ccccc2)=NC1O (stereo not shown) [Oxazepam]
fu,.p ([3]; rat): 0.17 | fn (%) [4, 9]: 100%

CCCO [Propanol]
fu,.p ([3]; rat): 0.74 | fn (%) [4, 9]: 100%

O=C(O)c1cccnc1C(=O)O [Quinolinic acid]
Log Poct [2, 8]: −1.44 | Log Doct pH=7.4 [2, 8]: −4.08 | Brain Kin [6]: 0.00019 mL/s/g | Extraction (unbound) [6]: 0.01% | Brain vascular extraction (total) [6]: 0.0071% | fu,.p ([3]; rat in vivo measurements): 1.00 | Log Pc ([5]; pH 7.4): −7.77 | Log PoS ([5]; pH 7.4): −3.13 | Pc ([5]; pH 7.4): 0.017 ×10⁻⁶ cm/s | PcS ([5]; pH 7.4): 1.7e-06 mL/s/g | PoS ([5]; pH 7.4): 0.000743 mL/s/g | Log Po ([5]; pH 7.4): −5.13 | Po ([5]; pH 7.4): 7.43e-06 cm/s

CN1C(=O)C(O)N=C(c2ccccc2)c2cc(Cl)ccc21 (stereo not shown) [Temazepam]
fu,.p ([3]; rat): 0.18 | fn (%) [4, 9]: 100%

Cn1c(=O)c2[nH]cnc2n(C)c1=O [Theophylline]
half-life ([1]; brain): 4.6 min | Log Poct [2, 8]: 0.00 | Log Doct pH=7.4 [2, 8]: 0.00 | fn (%) [4, 9]: 100%

CCCCNC(=O)NS(=O)(=O)c1ccc(C)cc1 [Tolbutamide]
half-life ([1]; brain): 3.27 min | fn (%) [4, 9]: 0.61%

Cc1nnc2n1-c1ccc(Cl)cc1C(c1ccccc1Cl)=NC2 [Triasolam]
fn (%) [4, 9]: 100%

NC(N)=O [Urea]
Log Poct [2, 8]: −1.66 | Log Doct pH=7.4 [2, 8]: −1.66 | fu,.p ([3]; rat in vivo measurements): 1.00 | fn (%) [4, 9]: 100%

O [Water]
Log Poct [2, 8]: −0.59 | Log Doct pH=7.4 [2, 8]: −0.59 | Brain Equilibration t1/2, Calculated ([6]; plasma): 0.81 min | fu,.p ([3]; rat in vivo measurements): 1.00 | BBB PcS [5]: 0.029 mL/s/g | Brain Equilibration t1/2, Measured [5]: 1 min | Kin Underestimate (linear regression vs two compartment model) [5]: 54% | Log Pc [5]: −3.54 | Log PoS [5]: −1.54 | Pc [5]: 287 ×10⁻⁶ cm/s | PcS [5]: 0.029 mL/s/g | PoS [5]: 0.0287 mL/s/g | Log Po [5]: −3.54 | Po [5]: 0.000287 cm/s

CC(C)(C)OC(=O)CCCc1ccc(N(CCCl)CCCl)cc1 [t-butyl chlorambucil]
Log Poct [2, 8]: 5.24 | Log Poct ([2]; ref Hansch et al. [123], Avdeef [46] or other sources, listed as t-butyl-chlorambucil): 5.2 | Log Doct pH=7.4 [2, 8]: 5.24 | Maximal flow—90% extraction, PcS/2.3 [6]: 14.0 mL/s/g | fu,.p ([3]; rat in vivo measurements): 2.0E−03 | fn (%) [4, 9]: 100% | Brain Extraction (%) [5]: 24% | Log Pc [5]: −0.49 | Log PoS [5]: 1.51 | Pc [5]: 321000 ×10⁻⁶ cm/s | PcS [5]: 32.1 mL/s/g | PoS [5]: 32.1 mL/s/g | Log Po [5]: −0.49 | Po [5]: 0.32 cm/s

Erythrosine B
Log Doct pH=7.4 [2]: −0.15 | Brain Kin [6]: 6.53e-06 mL/s/g | Extraction (unbound) [6]: 2.7% | Brain vascular extraction (total) [6]: 0.027% | fu,.p ([3]; rat): 0.01 | fn (%) [4, 9]: 7.8E−06% | Log Pc [5]: −5.19 | Log PoS [5]: 3.92 | Pc [5]: 6.53 ×10⁻⁶ cm/s | PcS [5]: 0.00065 mL/s/g | Log Po [5]: 1.92 | Po [5]: 83.48 cm/s
